Like-named read-outs stand apart in the source and are kept apart here.
How the values were obtained:
NMDA receptor = molecular target: T1, NMDA receptor (Rattus norvegicus, UniProt P35439); assay: [3H] MK-801 Binding Assay (MK-801 Glycine Site Binding Assay: Rat Cortex)
T1 construct: well washed rat cortical membranes (200 μg); from tissue; host or cells: rat cerebral cortex membranes
Experimental: Assays were conducted as described in Moskal et al. (Moskal, J. R., Kuo, A. G., Weiss, C., Wood, P. L., O'Connor Hanson, A., Kelso, S., Harris, R. B., Disterhoft, J. F., 2005. GLYX-13: a monoclonal antibody-derived peptide that acts as an N-methyl-D-aspartate receptor modulator. Neuropharmacology. 49, 1077-87) The potentiation of [^3H]MK-801 binding (5 nM; 22.5 Ci/mmol) to well washed rat cortical membranes (200 μg) was measured under non-equilibrium conditions (15 min @25° C.) in the presence of increasing concentrations of test compounds and 50 μM glutamate. Zero levels were determined in the absence of any glycine ligand and in the presence of 30 μM 5,7 DCKA. Maximal stimulation was measured in the presence of 1 mM glycine, and 50 μM glutamate was present in all samples. The facilitation of [^3H]MK-801 binding by tests compounds was calculated by using a 3 parameter log agonist vs. response equation (Graph pad Prism, USA) and potency (EC50, expressed in pM) and maximal activity (% maximal stimulation) were calculated for the test compound.

LTP = LTP augmentation; conditions: LTP concentration 1 uM
[1] = Porsolt floating time inhibition; assay type: in vivo; conditions: 1 hour post dose
[2] = Table 3, read-out: MK-801 Glycine Site Binding Assay: Rat Cortex EC50

CC(O)C(c1ncccn1)N1CC2(CCC(C)N2C(=O)OC(C)(C)C)C1=O (centres unmarked) [Compound C-19, tert-butyl 2-(2-hydroxy-1-(pyrimidin-2-yl)propyl)-6-methyl-1-oxo-2,5-diazaspiro[3,4]octane-5-carboxylate]
EC50 (NMDA receptor; [2]): 0.11 nM
LTP: LTP Augmentation (%) (LTP): 110%

CC(O)C(c1ncccn1)N1C(=O)C2(CCCN2C(=O)OC(C)(C)C)C1C (centres unmarked) [Compound C-29, tert-butyl 2-(2-hydroxy-1-(pyrimidin-2-yl)propyl)-1-methyl-3-oxo-2,5-diazaspiro[3,4]octane-5-carboxylate]
EC50 (NMDA receptor; [2]): 0.135 nM
LTP: LTP Augmentation (%) (LTP): 125%

CC(O)C(c1ncccn1)N1CC2(CCCN2)C1=O (centres unmarked) [Compound Y, 2-(2-hydroxy-1-(pyrimidin-2-yl)propyl)-2,5-diazaspiro[3.4]octan-1-one]
Unified Activity Data: Porsolt Floating Time Inhibition (Percent) ([1]; 3 mg/kg IV): 92%
EC50 (NMDA receptor; Table 2, read-out: MK-801 Glycine Site Binding Assay: Rat Cortex EC50): 0.288 nM
Emax (NMDA receptor; maximal stimulation measured with 1 mM glycine, 50 μM glutamate): 14%
EC50 (NMDA receptor; rat cortical membranes, 50 μM glutamate, read-out: potency (EC50) for potentiation of [3H]MK-801 binding): 0.288 nM
Unified Activity Data: LTP Augmentation (Percent) (LTP): 140%

2-(2-hydroxy-1-(pyrimidin-2-yl)propyl)-3,6-dimethyl-2, 5-diazaspiro[3,4]octan-1-one [Compound C-33]
EC50 (NMDA receptor; [2]): 0.00713 nM
LTP: LTP Augmentation (%) (LTP): 30%

CC1N([C@@H](c2nnco2)[C@H](C)O)C(=O)C12CCCN2C(=O)OC(C)(C)C (stereo partly drawn) [Compound C-26, tert-butyl 2-((1R, 2S)-2-hydroxy-1-(1,3,4-oxadiazol-2-yl)propyl)-1-methyl-3-oxo-2,5-diazaspiro[3,4]octane-5-carboxylate]
LTP: LTP Augmentation (%) (LTP): 65%

C[C@@H](O)[C@@H](c1ncno1)N1CC2(CCCN2C(=O)OC(C)(C)C)C1=O (stereo partly drawn) [Compound C-15, tert-butyl 2-((1S,2R)-2-hydroxy-1-(1,2,4-oxadiazol-5-yl)propyl)-1-oxo-2,5-diazaspiro[3,4]octane-5-carboxylate]
Unified Activity Data: Porsolt Floating Time Inhibition (Percent) ([1]; 1 mg/kg PO): 86%
Unified Activity Data: LTP Augmentation (Percent) (LTP): 120%
